One data set has as its target T1, 5-HT1A receptor (Rattus norvegicus, UniProt P19327).
T1 sequence (P19327 1-422): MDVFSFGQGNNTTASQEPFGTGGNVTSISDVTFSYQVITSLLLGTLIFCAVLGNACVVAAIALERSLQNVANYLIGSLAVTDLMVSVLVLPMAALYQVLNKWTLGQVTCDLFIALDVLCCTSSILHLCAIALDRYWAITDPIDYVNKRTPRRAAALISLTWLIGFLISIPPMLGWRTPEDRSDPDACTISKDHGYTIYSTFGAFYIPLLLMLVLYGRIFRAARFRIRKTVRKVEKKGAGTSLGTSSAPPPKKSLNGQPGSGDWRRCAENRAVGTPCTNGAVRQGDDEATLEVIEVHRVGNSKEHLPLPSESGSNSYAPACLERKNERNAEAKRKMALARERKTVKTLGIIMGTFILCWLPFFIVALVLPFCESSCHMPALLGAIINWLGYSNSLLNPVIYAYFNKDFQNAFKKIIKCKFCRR
The data set can be described thus: 5HT1A receptor binding assay (3H-8-OH-DPAT, rat brain striatum membrane). The settings on record: test compound final concentration 10^−5 M; 3H-8-OH-DPAT; rat brain striatum membrane. The protocol: Incubation at 37° C. was conducted for 10 min, the weight of the tubes were adjusted using a balance after incubation. […] Centrifugation was conducted and repeated 3 times.

The target of the next data set is 5-HT2A receptor (Rattus norvegicus, UniProt P14842). The data set can be described thus: 5HT2A receptor binding assay ([3H]-Ketanserin, rat brain striatum membrane). The note with it: read-out: 5HT2A inhibition %.
The next data set has as its target dopamine D2 receptor (Rattus norvegicus, UniProt P61169). The data set can be described thus: D2 receptor binding assay (3H-Spiperone, rat brain striatum membrane). The note with it: read-out: D2 inhibition %.
[1] abbreviates: test compound final concentration 10^−5 M, [3H]-Ketanserin, rat brain striatum membrane.

Counter-ions that a name gives are not always drawn. Like-named read-outs stand apart in the source and are kept apart here.

The source of these data is US9315496B2, “Benzopyrone derivative and use thereof” (HUAZHONG UNIVERSITY OF SCIENCE & TECHNOLOGY, priority 2011, dated 2016).

Sequence of dopamine D2 receptor (P61169 whole entry): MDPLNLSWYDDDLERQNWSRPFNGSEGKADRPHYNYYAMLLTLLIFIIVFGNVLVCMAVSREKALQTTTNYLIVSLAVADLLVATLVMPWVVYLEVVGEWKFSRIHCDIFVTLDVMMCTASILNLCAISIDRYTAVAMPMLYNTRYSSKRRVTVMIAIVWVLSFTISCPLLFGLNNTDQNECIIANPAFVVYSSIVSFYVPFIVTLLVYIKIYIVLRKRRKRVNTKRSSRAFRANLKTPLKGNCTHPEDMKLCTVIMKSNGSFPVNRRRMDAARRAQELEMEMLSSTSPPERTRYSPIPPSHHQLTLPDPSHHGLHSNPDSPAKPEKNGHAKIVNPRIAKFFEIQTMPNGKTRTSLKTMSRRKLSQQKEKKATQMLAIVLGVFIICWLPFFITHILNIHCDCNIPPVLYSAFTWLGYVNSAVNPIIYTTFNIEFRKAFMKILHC
Sequence of 5-HT2A receptor (P14842 whole entry): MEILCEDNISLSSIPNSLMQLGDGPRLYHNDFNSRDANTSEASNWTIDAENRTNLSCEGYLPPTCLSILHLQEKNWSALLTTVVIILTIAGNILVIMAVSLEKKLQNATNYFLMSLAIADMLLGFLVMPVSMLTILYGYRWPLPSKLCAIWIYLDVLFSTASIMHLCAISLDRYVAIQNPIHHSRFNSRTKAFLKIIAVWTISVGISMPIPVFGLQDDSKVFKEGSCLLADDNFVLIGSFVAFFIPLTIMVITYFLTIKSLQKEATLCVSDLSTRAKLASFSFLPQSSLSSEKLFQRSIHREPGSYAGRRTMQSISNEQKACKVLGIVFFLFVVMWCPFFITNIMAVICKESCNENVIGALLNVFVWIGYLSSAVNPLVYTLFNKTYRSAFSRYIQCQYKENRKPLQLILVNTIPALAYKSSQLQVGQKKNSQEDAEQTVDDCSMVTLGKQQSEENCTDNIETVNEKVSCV
Method for dopamine D2 receptor: Rats were sacrificed by cervical dislocation on ice. Brain striatum was rapidly taken, and 2 brain striatums were combined into a centrifuge tube, to which 3 ml of buffer (0.05 M Tris-HCl buffer, containing NaCl 120 mM, KCl 5 mM, MgCl2 1 mM, CaCl2 1 mM) was added, homogenization was conducted for 3-4 s at level 4 for four times, and then 5 ml of buffer was then added. The weight of the homogenized tubes were adjusted using a balance, and centrifugation was conducted at 12000 r, 4° C. for 20 min. The supernatant was discarded, and 3 ml of buffer was added (0.05 M Tris-HCl buffer, containing NaCl 120 mM, KCl 5 mM, MgCl2 1 mM, CaCl2 1 mM). Vortex mixer was used for blending, and then 5 ml of buffer was added (0.05 M Tris-HCl buffer, containing NaCl 120 mM, KCl 5 mM, MgCl2 1 mM, CaCl2 1 mM). Centrifugation was conducted (repeated 3 times). After the centrifugations, the supernatant was discarded, and the pellets were stored at −80° C. for future use.
Beckman LS-6500 Multi-function Liquid Scintillation Counter was used.
(1) The prepared membrane was first applied with appropriate amount of homogenized liquid, and homogenizer was used for evenly dispersing. 15 tubes were mixed into a 100 ml container, and appropriate amount of homogenized liquid was added to give 50 ml of membrane suspension, which was reserved for future use.
(2) 100 μL of membrane preparation and 100 μL of buffer were added into each reaction tube.
(3) 100 μL of homogenized liquid was added into the total binding tube (TB), 100 μL of Butaclamol (final concentration 10^−5 M) was added into the non-specific binding tube (NB), and 100 μL of the test compound (final concentration 10^−5 M) was added into the specific binding tube (SB) for each compound.
(5) Each of the reaction tubes was incubated at 37° C. for 20 min. After the reaction was completed, the bound ligands were rapidly filtered under reduced pressure, and the ice-chilled assay buffer was used for adequate washing. The filter was taken out and put into a 3 ml scintillation vial, and 2 ml of toluene scintillation solution was added and blended.
(6) The scintillation vials were put into Liquid Scintillation Counter for counting. Inhibitory rate(1%)=(Total binding tube cpm−compound cpm)/(Total binding tube cpm−non-specific binding tube cpm)×100%
Each assay for the compounds was conducted in duplicate.

One may read the inhibition as the drop in the measured response relative to a control, in per cent. As usually defined, the melting point is the temperature of the solid-liquid transition. On to `Cc1cc(=O)oc2cc(OCCCCN3CCN(c4nsc5ccccc45)CC3)ccc12` [Compound 5, 7-(4-(4-(3-(1,2-benzisothiazole)-1-piperazinyl)-n-butoxy))-4-methyl-2H-benzopyran-2-one], for which the melting point fell in the range of 110 to 112 °C. At 5-HT1A receptor, the inhibition at 10 µM turned out to be 114%. On 5-HT2A receptor (setting [1]), the inhibition at 10 µM came to 104%. The inhibition at 10 µM at dopamine D2 receptor is 88.5%.

As for `O=c1cc(-c2ccccc2)c2ccc(OCCCCN3CCC(c4noc5cc(F)ccc45)CC3)cc2o1` [Compound 13, 7-(4-(4-(3-(6-fluoro-benzisoxazole)-1-piperidyl)-n-butoxy))-4-phenyl-2H-benzopyran-2-one], the inhibition at 10 µM was found to be 111% at 5-HT1A receptor, 67.2% on 5-HT2A receptor and 65.2% at dopamine D2 receptor.

For `Cc1cc(=O)oc2cc(OCCCN3CCN(c4nsc5ccccc45)CC3)ccc12` [Compound 8, 7-(3-(4-(3-(1,2-benzisothiazole)-1-piperazinyl)-n-propoxy))-4-methyl-2H-benzopyran-2-one], the melting point lay in the range of 113 to 115 °C. The inhibition at 10 µM at 5-HT1A receptor is 98.5%. Moreover, the inhibition at 10 µM at 5-HT2A receptor (setting [1]) turned out to be 88.6%. For the same compound, the inhibition at 10 µM on dopamine D2 receptor amounted to 73.8%.

Take `O=c1ccc2ccc(OCCCCN3CCN(c4nsc5ccccc45)CC3)cc2o1` (as salt: hydrochloride) [Compound 2, 7-(4-(4-(3-(1,2-benzisothiazole)-1-piperazinyl)-n-butoxy))-2H-benzopyran-2-one]: the melting point was in the range of 103 to 105 °C.

`Cc1cc(=O)oc2c(Cl)c(OCCCN3CCC(c4noc5cc(F)ccc45)CC3)ccc12` [Compound 21, 7-(3-(4-(3-(6-fluoro-benzisoxazole)-1-piperidyl)-n-propoxy))-4-methyl-8-chloro-2H-benzopyran-2-one] gave a melting point of 185 to 187 °C. Also, the inhibition at 10 µM at 5-HT1A receptor came out at 101%. Further, the inhibition at 10 µM on 5-HT2A receptor (setting [1]) worked out at 90.1%. Also, the inhibition at 10 µM on dopamine D2 receptor was 32.9%.

Consider `O=C1CC(c2ccccc2)c2ccc(OCCCCN3CCC(c4noc5cc(F)ccc45)CC3)cc2O1` (centres unmarked) [Compound 34], for which the values for the inhibition at 10 µM at 5-HT1A receptor, on 5-HT2A receptor (setting [1]) and at dopamine D2 receptor were 5.9%, 115% and 120%, respectively.

In the case of `O=c1ccc2ccc(OCCCN3CCN(c4nsc5ccccc45)CC3)cc2o1` [Compound 4, 7-(3-(4-(3-(1,2-benzisothiazole)-1-piperazinyl)-n-propoxy))-2H-benzopyran-2-one], the melting point lay within 91 to 93 °C. In addition, at 5-HT1A receptor, the inhibition at 10 µM came out at 101%. The inhibition at 10 µM on 5-HT2A receptor (setting [1]) stood at 59.1%. Moreover, the inhibition at 10 µM on dopamine D2 receptor was 49.2%.

With `Cc1cc(=O)oc2cc(OCCCCCN3CCC(c4noc5cc(F)ccc45)CC3)ccc12` [Compound 9, 7-(5-(4-(3-(6-fluoro-benzisoxazole)-1-piperidyl)-n-pentyloxy))-4-methyl-2H-benzopyran-2-one], the melting point is 119 to 121 °C. For the same compound, at 5-HT1A receptor, the inhibition at 10 µM is 88.8%. Also, the inhibition at 10 µM on 5-HT2A receptor (setting [1]) is 120%. For the same compound, the inhibition at 10 µM on dopamine D2 receptor worked out at 102%.

With `Cc1cc(=O)oc2c(C)c(OCCCCN3CCN(c4nsc5ccccc45)CC3)ccc12` [Compound 24, 7-(4-(4-(3-(1,2-benzisothiazole)-1-piperazinyl)-n-butoxy))-4-8-dimethyl-2H-benzopyran-2-one], the melting point lay in the range of 106 to 108 °C. Moreover, on 5-HT1A receptor, the inhibition at 10 µM stood at 105%. Also, at 5-HT2A receptor (setting [1]), the inhibition at 10 µM was 97.4%. For the same compound, the inhibition at 10 µM on dopamine D2 receptor turned out to be 98.1%.

Compound `CCc1cc(=O)oc2cc(OCCCCN3CCN(c4nsc5ccccc45)CC3)ccc12` [Compound 28, 7-(4-(4-(3-(1,2-benzisothiazole)-1-piperazinyl)-n-butoxy))-4-ethyl-2H-benzopyran-2-one] showed a melting point of 110 to 112 °C. For the same compound, the inhibition at 10 µM on 5-HT1A receptor amounted to 11%. Further, the inhibition at 10 µM at 5-HT2A receptor (setting [1]) amounted to 56.1%. For the same compound, the inhibition at 10 µM at dopamine D2 receptor was determined as 58.8%.

Turning to `O=c1cc(-c2ccccc2)c2ccc(OCCCN3CCC(c4noc5cc(F)ccc45)CC3)cc2o1` [Compound 11, 7-(3-(4-(3-(6-fluoro-benzisoxazole)-1-piperidyl)-n-propoxy))-4-phenyl-2H-benzopyran-2-one], the melting point lay in the range of 185 to 187 °C. For the same compound, the inhibition at 10 µM at 5-HT1A receptor amounted to 35.3%. Further, the inhibition at 10 µM on 5-HT2A receptor (setting [1]) was 57.8%. Besides, the inhibition at 10 µM on dopamine D2 receptor was 18.5%.

The compound `O=c1cc(C(F)(F)F)c2ccc(OCCCN3CCC(c4noc5cc(F)ccc45)CC3)cc2o1` [Compound 15, 7-(3-(4-(3-(6-fluoro-benzisoxazole)-1-piperidyl)-n-propoxy))-4-(trifluoromethyl)-2H-benzopyran-2-one] returned a melting point of 146 to 148 °C. Further, the inhibition at 10 µM at 5-HT1A receptor was found to be 107%. Further, at 5-HT2A receptor (setting [1]), the inhibition at 10 µM was determined as 83.3%. Further, the inhibition at 10 µM at dopamine D2 receptor worked out at 94.6%.

Consider `O=c1cc(C(F)(F)F)c2ccc(OCCCN3CCN(c4nsc5ccccc45)CC3)cc2o1` (as salt: hydrochloride) [Compound 16, 7-(3-(4-(3-(1,2-benzisothiazole)-1-piperazinyl)-n-propoxy))-4-(trifluoromethyl)-2H-benzopyran-2-one], for which the melting point is 103 to 105 °C.

As to `O=c1cc(-c2ccccc2)c2ccc(OCC(O)CN3CCC(c4noc5cc(F)ccc45)CC3)cc2o1` (centres unmarked) [Compound 33, 7-(3-(4-(3-(6-fluoro-benzisoxazole)-1-piperidyl)-2-hydroxylpropoxy))-4-phenyl-2H-benzopyran-2-one], the melting point is 193 to 195 °C. Besides, the inhibition at 10 µM on 5-HT1A receptor was determined as 23.5%. Moreover, the inhibition at 10 µM at 5-HT2A receptor (setting [1]) is 129%. Further, the inhibition at 10 µM at dopamine D2 receptor amounted to 110%.

`CCc1cc(=O)oc2cc(OCCCCN3CCC(c4noc5cc(F)ccc45)CC3)ccc12` [Compound 27, 7-(4-(4-(3-(6-fluoro-benzisoxazole)-1-piperidyl)-n-butoxy))-4-ethyl-2H-benzopyran-2-one]: the figures for the inhibition at 10 µM on 5-HT1A receptor, at 5-HT2A receptor (setting [1]) and on dopamine D2 receptor were 65.7%, 124% and 84%, respectively.

`O=c1cc(-c2ccccc2)c2ccc(OCCCCN3CCN(c4nsc5ccccc45)CC3)cc2o1` [Compound 14, 7-(4-(4-(3-(1,2-benzisothiazole)-1-piperazinyl)-n-butoxy))-4-phenyl-2H-benzopyran-2-one] came in with a melting point of 116 to 118 °C. Also, on 5-HT1A receptor, the inhibition at 10 µM amounted to 95.5%. Further, the inhibition at 10 µM on 5-HT2A receptor (setting [1]) stood at 83.4%. Besides, the inhibition at 10 µM at dopamine D2 receptor amounted to 68.6%.

For the compound `Cc1c(C)c2ccc(OCCCCN3CCC(c4noc5cc(F)ccc45)CC3)cc2oc1=O` [Compound 29, 7-(4-(4-(3-(6-fluoro-benzisoxazole)-1-piperidyl)-n-butoxy))-3,4-dimethyl-2H-benzopyran-2-one], the melting point fell in the range of 106 to 108 °C. In addition, the inhibition at 10 µM on 5-HT1A receptor stood at 97.1%. For the same compound, at 5-HT2A receptor (setting [1]), the inhibition at 10 µM was determined as 24.7%. Also, the inhibition at 10 µM at dopamine D2 receptor was 43.2%.

Consider `CCCc1cc(=O)oc2cc(OCCCCN3CCN(c4nsc5ccccc45)CC3)ccc12` [Compound 26, 7-(4-(4-(3-(1,2-benzisothiazole)-1-piperazinyl)-n-butoxy))-4-n-propyl-2H-benzopyran-2-one], for which the inhibition at 10 µM at 5-HT1A receptor is 99.7%; at 5-HT2A receptor (setting [1]) it was 129%; on dopamine D2 receptor, 61.9%.

`O=c1cc(CO)c2ccc(OCCCN3CCC(c4noc5cc(F)ccc45)CC3)cc2o1` [Compound 30, 7-(3-(4-(3-(6-fluoro-benzisoxazole)-1-piperidyl)-n-propoxy))-4-hydroxymethyl-2H-benzopyran-2-one] displayed a melting point of 144 to 146 °C. On 5-HT1A receptor, the inhibition at 10 µM stood at 82.8%. Moreover, on 5-HT2A receptor (setting [1]), the inhibition at 10 µM amounted to 98.5%. Moreover, the inhibition at 10 µM on dopamine D2 receptor worked out at 20.3%.

As for `O=c1ccc2ccc(OCCCCN3CCN(c4nsc5ccccc45)CC3)cc2o1` [Compound 2, 7-(4-(4-(3-(1,2-benzisothiazole)-1-piperazinyl)-n-butoxy))-2H-benzopyran-2-one], the inhibition at 10 µM at 5-HT1A receptor stood at 99.4%; on 5-HT2A receptor (setting [1]), 103%; on dopamine D2 receptor it was 80.6%.

In the case of `O=c1cc(C(F)(F)F)c2ccc(OCCCCN3CCC(c4noc5cc(F)ccc45)CC3)cc2o1` [Compound 17, 7-(4-(4-(3-(6-fluoro-benzisoxazole)-1-piperidyl)-n-butoxy))-4-(trifluoromethyl)-2H-benzopyran-2-one], the melting point lay within 125 to 127 °C. Besides, the inhibition at 10 µM at 5-HT1A receptor came to 101%. The inhibition at 10 µM at 5-HT2A receptor (setting [1]) came out at 95.9%. For the same compound, at dopamine D2 receptor, the inhibition at 10 µM is 92.3%.

Compound `O=c1cc(-c2ccccc2)c2ccc(OCCCN3CCN(c4nsc5ccccc45)CC3)cc2o1` (as salt: hydrochloride) [Compound 12, 7-(3-(4-(3-(1,2-benzisothiazole)-1-piperazinyl)-n-propoxy))-4-phenyl-2H-benzopyran-2-one] returned a melting point of 96 to 98 °C.

Regarding `O=c1cc(C(F)(F)F)c2ccc(OCCCN3CCN(c4nsc5ccccc45)CC3)cc2o1` [Compound 16, 7-(3-(4-(3-(1,2-benzisothiazole)-1-piperazinyl)-n-propoxy))-4-(trifluoromethyl)-2H-benzopyran-2-one], the inhibition at 10 µM was found to be 104% at 5-HT1A receptor, 96.3% on 5-HT2A receptor (setting [1]) and 115% at dopamine D2 receptor.
